Laboratory results published in patent US20090203577A1 (EXELIXIS, INC., priority 2005, published 2009).
pEC50: −log10 of the molar value. ≈ marks a conversion by molar mass, not a printed value.

Tests used:
[1] = target: T1, human farnesoid X receptor (Homo sapiens, UniProt Q96RI1); assay: FXR in vitro assays (farnesoid X receptor/ECREx7 co-transfection assay, TR-FRET assay), Table I; type: cell-based; details: for pEC50: agonist activity, one or more of the in vitro assays, read-out: EC50; for Emax: read-out: % Efficacy
T1 construct: CMX-farnesoid X receptor (full length human farnesoid X receptor); expressed in transfected cells; host or cells: CV-1 African Green Monkey Kidney cells
T1 sequence (Q96RI1 1-472 isoform Q96RI1-2): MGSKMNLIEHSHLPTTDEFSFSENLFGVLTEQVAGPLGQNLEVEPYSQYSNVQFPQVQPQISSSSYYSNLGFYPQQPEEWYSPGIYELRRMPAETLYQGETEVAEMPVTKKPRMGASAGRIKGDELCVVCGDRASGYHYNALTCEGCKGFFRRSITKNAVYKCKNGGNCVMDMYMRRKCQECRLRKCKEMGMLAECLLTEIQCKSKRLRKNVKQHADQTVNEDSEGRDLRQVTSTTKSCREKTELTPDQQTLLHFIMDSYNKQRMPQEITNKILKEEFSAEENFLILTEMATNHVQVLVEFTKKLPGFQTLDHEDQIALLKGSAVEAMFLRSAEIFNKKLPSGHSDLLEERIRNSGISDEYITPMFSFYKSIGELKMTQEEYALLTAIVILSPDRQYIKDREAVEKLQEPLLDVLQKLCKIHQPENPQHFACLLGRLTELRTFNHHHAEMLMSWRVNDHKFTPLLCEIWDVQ
T1 sequence (P19793 1-462 partner): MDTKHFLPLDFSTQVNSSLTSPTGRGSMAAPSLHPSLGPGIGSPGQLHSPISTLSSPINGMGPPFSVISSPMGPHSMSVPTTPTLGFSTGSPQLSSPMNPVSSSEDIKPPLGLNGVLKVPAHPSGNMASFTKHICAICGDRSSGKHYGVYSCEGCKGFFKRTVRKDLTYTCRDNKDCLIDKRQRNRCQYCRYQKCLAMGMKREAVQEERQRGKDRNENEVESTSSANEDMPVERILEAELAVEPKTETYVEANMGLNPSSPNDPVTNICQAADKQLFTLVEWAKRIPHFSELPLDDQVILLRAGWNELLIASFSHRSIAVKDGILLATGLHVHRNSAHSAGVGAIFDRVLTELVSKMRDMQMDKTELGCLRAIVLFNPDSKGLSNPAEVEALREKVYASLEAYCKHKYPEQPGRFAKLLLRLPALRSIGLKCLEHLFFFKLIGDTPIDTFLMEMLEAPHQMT
Summary of the method: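 CV-1 monkey kidney cells transfected for an FXR/ECREx7 luciferase co-transfection reporter; luciferase read 18-20 h later in lysates. 8-point dose-response at ½-log spacing, 4 wells per point; EC50/IC50 from four-parameter Hill fit, averaged over at least 3 independent experiments.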

physchem = details: pH 7.4, aqueous buffer, kinetic from dmso stock
Experimental: The kinetic solubility of test compounds in buffer was evaluated using a 96 well filtration plate format. A 500 μM assay solution in PBS, pH7.4 (or other assay buffer, as needed) was generated form a DMSO stock solution (up to 10 mM). Samples were transferred to a 96 Millipore MultiScreen HTS 96-well Filter plate (Cat# MSSLBPC10) mixed by shaking for 1.5 hours and processed by filtration prior to quantitation by HPLC-UV. Amiodarone and testosterone were used as reference controls.

SMILES | pEC50 [1] | Emax [1] [%] | solubility kinetic at 1.5 h (physchem) [µM] | solubility kinetic (physchem) [µM]
CC(C)OC(=O)C1=CN(C(=O)N2C[C@@H]3C[C@H]2CN3C)CC(C)(C)c2c1[nH]c1ccccc21 [Example 42, 1-methylethyl 1,1-dimethyl-3-{[(1S,4S)-5-methyl-2,5-diazabicyclo[2.2.1]hept-2-yl]carbonyl}-1,2,3,6-tetrahydroazepino [4,5-b]indole-5-carboxylate] | 6.00 to 7.00 | > 100 | > 10 | –
Cc1ccc(C(=O)N2C=C(C(=O)OC(C)C)c3[nH]c4ccccc4c3C(C)(C)C2)cc1F [Example 130, 1-methylethyl 3-[(3-fluoro-4-methylphenyl)carbonyl]-1,1-dimethyl-1,2,3,6-tetrahydroazepino[4,5-b]indole-5-carboxylate] | 7.00 to 8.00 | > 100 | 1 to 10 (≈ 0.435 to 4.35 µg/mL) | –
CC(C)OC(=O)C1=CN(C(=O)c2ccccc2OC(F)(F)F)CC(C)(C)c2c1[nH]c1ccccc21 [Example 70, 1-methylethyl 1,1-dimethyl-3-({2-[(trifluoromethyl)oxy]phenyl}carbonyl)-1,2,3,6-tetrahydroazepino[4,5-b]indole-5-carboxylate] | 6.00 to 7.00 | > 100 | 1 to 10 (≈ 0.486 to 4.86 µg/mL) | –
CCNC(=O)N1CCN(Cc2cccc(C(=O)N3C=C(C(=O)OC(C)C)c4[nH]c5ccccc5c4C(C)(C)C3)c2)CC1 [Example 185, 1-methylethyl 3-{[3-({4-[(ethylamino)carbonyl]piper-azin-1-yl}methyl)phenyl]carbonyl}-1,1-dimethyl-1,2,3,6-tetrahydroazepino[4,5-b]indole-5-carboxylate] | 6.00 to 7.00 | > 100 | 1 to 10 (≈ 0.572 to 5.72 µg/mL) | –
CC(C)OC(=O)C1=CN(C(=O)c2cccc(F)c2)CC(C)(C)c2c1[nH]c1ccccc21 [Example 72, 1-methylethyl 3-[(3-fluorophenyl)carbonyl]-1,1-dimethyl-1,2,3,6-tetrahydroazepino[4,5-b]indole-5-carboxylate] | 8.00 to 9.00 | > 100 | 1 to 10 (≈ 0.42 to 4.2 µg/mL) | –
CC(C)OC(=O)C1=CN(C(=O)c2cc(C(F)(F)F)cc(C(F)(F)F)c2)CC(C)(C)c2c1[nH]c1ccccc21 [Example 135, 1-methylethyl 3-{[3,5-bis(trifluoromethyl)phenyl]carbonyl}-1,1-dimethyl-1,2,3,6-tetrahydroazepino[4,5-b]indole-5-carboxylate] | 7.00 to 8.00 | > 100 | 1 to 10 (≈ 0.538 to 5.38 µg/mL) | –
CC1(C)CN(C(=O)c2ccc(F)c(F)c2)C=C(C(=O)OC[C@@H](O)CO)c2[nH]c3ccccc3c21 [Example 171, (2S)-2,3-dihydroxypropyl-3-[(3,4-difluorophenyl)carbonyl]-1,1-dimethyl-1,2,3,6-tetrahydroazepino[4,5-b]indole-5-carboxylate] | 7.00 to 8.00 | > 100 | > 10 | –
CC(C)OC(=O)C1=CN(C(=O)c2cccc(OCCN(C)C)c2)CC(C)(C)c2c1[nH]c1ccccc21 [Example 140, 1-methylethyl 3-[(3-{[2-(dimethylamino)ethyl]oxy}phenyl)carbonyl]-1,1-dimethyl-1,2,3,6-tetrahydroazepino[4,5-b]indole-5-carboxylate] | – | > 100 | > 10 | –
CC(C)OC(=O)C1=CN(C(=O)c2cccc(OCc3ccccc3)c2)CC(C)(C)c2c1[nH]c1ccccc21 [Example 127, 1-methylethyl 1,1-dimethyl-3-({3-[(phenylmethyl)oxy]phenyl}carbonyl)-1,2,3,6-tetrahydroazepino[4,5-b]indole-5-carboxylate] | 7.00 to 8.00 | > 100 | 1 to 10 (≈ 0.509 to 5.09 µg/mL) | –
C[C@]12CC[C@H]3[C@@H](CCC4=CC(=O)CC[C@@]43C)[C@@H]1CC[C@@H]2O [testosterone, reference compound] | – | – | – | ~330 (≈ 95.2 µg/mL)
CC(C)OC(=O)C1=CN(C(=O)c2cccc(OCCN3CCCCC3)c2)CC(C)(C)c2c1[nH]c1ccccc21 [Example 159, 1-methylethyl 1,1-dimethyl-3-({3-[(2-piperidin-1-ylethyl)oxy]phenyl}carbonyl)-1,2,3,6-tetrahydroazepino[4,5-b]indole-5-carboxylate] | – | – | 1 to 10 (≈ 0.53 to 5.3 µg/mL) | –
CC(C)OC(=O)C1=CN(C(=O)c2ccc(OCCN3CCOCC3)cc2)CC(C)(C)c2c1[nH]c1ccccc21 [Example 181, 1-methylethyl 1,1-dimethyl-3-({4-[(2-morpholin-4-ylethyl)oxy]phenyl}carbonyl)-1,2,3,6-tetrahydroazepino[4,5-b]indole-5-carboxylate] | – | – | 1 to 10 (≈ 0.532 to 5.32 µg/mL) | –
CC(C)OC(=O)C1=CN(C(=O)c2ccc3c(c2)nnn3C)CC(C)(C)c2c1[nH]c1ccccc21 [Example 157, 1-methylethyl 1,1-dimethyl-3-[(1-methyl-1H-1,2,3-benzotriazol-5-yl)carbonyl]-1,2,3,6-tetrahydroazepino[4,5-b]indole-5-carboxylate] | 7.00 to 8.00 | > 100 | – | –
CC(C)OC(=O)C1=CN(C(=O)c2cccc(CCl)c2)CC(C)(C)c2c1[nH]c1ccccc21 [Example 113, 1-methylethyl 3-{[3-(chloromethyl)phenyl]car-bonyl}-1,1-dimethyl-1,2,3,6-tetrahydroazepino[4,5-b]indole-5-carboxylate] | 7.00 to 8.00 | > 100 | – | –
CC(C)OC(=O)C1=CN(C(=O)c2ccc(F)cc2C(F)(F)F)CC(C)(C)c2c1[nH]c1ccccc21 [Example 110, 1-methylethyl 3-{[4-fluoro-2-(trifluoromethyl)phenyl]car-bonyl}-1,1-dimethyl-1,2,3,6-tetrahydroazepino[4,5-b]indole-5-carboxylate] | 7.00 to 8.00 | > 100 | – | –
CCS(=O)(=O)N1CCN(Cc2cccc(C(=O)N3C=C(C(=O)OC(C)C)c4[nH]c5ccccc5c4C(C)(C)C3)c2)CC1 [Example 172, 1-methylethyl 3-[(3-{[4-(ethylsulfonyl)piperazin-1-yl]methyl}phenyl)carbonyl]-1,1-dimethyl-1,2,3,6-tetrahydroazepino[4,5-b]indole-5-carboxylate] | 6.00 to 7.00 | > 100 | – | –
CC(C)OC(=O)C1=CN(C(=O)c2ccc(F)cc2F)CC(C)(C)c2c1[nH]c1ccccc21 [Example 73, 1-methylethyl 3-[(2,4-difluorophenyl)carbonyl]-1,1-dimethyl-1,2,3,6-tetrahydroazepino[4,5-b]indole-5-carboxylate] | 8.00 to 9.00 | > 100 | – | –
CC(C)OC(=O)C1=CN(C(=O)c2cccc(C(F)(F)F)c2F)CC(C)(C)c2c1[nH]c1ccccc21 [Example 133, 1-methylethyl 3-{[2-fluoro-3-(trifluoromethyl)phenyl]car-bonyl}-1,1-dimethyl-1,2,3,6-tetrahydroazepino[4,5-b]indole-5-carboxylate] | 7.00 to 8.00 | > 100 | – | –
CC1(C)CN(C(=O)c2ccc(F)c(F)c2)C=C(C(=O)OC[C@H](O)CO)c2[nH]c3ccccc3c21 [Example 129, (2R)-2,3-dihydroxypropyl 3-[(3,4-difluorophenyl)carbonyl]-1,1-dimethyl-1,2,3,6-tetrahydroazepino[4,5-b]indole-5-carboxylate] | 6.00 to 7.00 | > 100 | – | –
CC(=O)C1=CNCC(C)(C)c2c1[nH]c1ccccc21 [Example 21] | 5.00 to 6.00 | – | – | –
CC1(C)CN(C(=O)c2ccc(F)c(F)c2)C=C(C(=O)OC(CF)CF)c2[nH]c3ccccc3c21 [Example 136, 2-fluoro-1-(fluoromethyl)ethyl 3-[(3,4-difluorophenyl)carbonyl]-1,1-dimethyl-1,2,3,6-tetrahydroazepino[4,5-b]indole-5-carboxylate] | 8.00 to 9.00 | > 100 | – | –
COC(=O)C1=CN(C(=O)c2ccc(F)c(F)c2)CC(C)(C)c2c1[nH]c1ccccc21 [Example 123, methyl 3-[(3,4-difluorophenyl)carbonyl]-1,1-dimethyl-1,2,3,6-tetrahydroazepino[4,5-b]indole-5-carboxylate] | 6.00 to 7.00 | > 100 | – | –
